# Measured values published in US20260285860A1, “INHIBITORS OF cGAS AND USES THEREOF” (The Trustees of Columbia University in the City of New York, priority 2023, published 2026).
# Experiments:
# HCC44 = test: Treatment of HCC44 with cGAS inhibitor, STING signaling in response to cGAMP stimulation; type: cell-based, human; settings: HCC44 cells
# Description: Suppression of CIN or cGAS activity restores immunogenic potential of LKB1-deficient NSCLC. In experiments, relief of tonic STING activation via cGAMP could be removed by genetically deleting cGAS. Treatment of HCC44 with a commercially available human-selective cGAS inhibitor (G150) restored STING protein levels and enhanced pTBK1 and pIRF3 in response to cGAMP stimulation, thus, phenocopying genetic cGAS deletion experiments.
# [1] = test system: KL, 4T1, CT26, B16F10 and E0771.1mb tumors; test: MSA-2 treatment of transplanted wild type or Cgas KO tumors; type: in vivo
# Description: To test if loss of tumor cell cGAS activity would sensitize otherwise resistant chromosomally unstable tumors to STING agonists, wild type or Cgas KO cells […] biweekly with MSA-2.
# macrophages = test: Macrophage polarization assays with conditioned media from MSA-2-treated cancer cells; type: cell-based
# Experimental: (§1) Given mounting evidence on reprograming of macrophages by STING agonists, macrophage polarization assays were carried out. […] Finally, KL, 4T1, and EO771.1mb were inoculated subcutaneously (KL) or orthotopically (4T1 and EO771.1mb) to evaluate the efficacy of RU.521 and MSA-2 combination treatment. Animals were pre-treated with RU.521 to ensure sufficient drug exposure by the time the first MSA-2 dose was administrated and continued RU.521 throughout the treatment course. Animals were treated with MSA-2 when tumors reached ~100 mm3.
# [2] = test system: KL, 4T1, and EO771.1mb tumors; test: RU.521 and MSA-2 combination treatment of KL, 4T1 and EO771.1mb tumors in animals; type: in vivo; settings: KL (subcutaneous), 4T1 and EO771.1mb (orthotopic); agent alone
# Experimental: as §1
# [3] = Cgas KO tumors, KL, 4T1, CT26, B16F10, MSA-2 biweekly
SMILES,STING protein levels (HCC44),pIRF3 in response to cGAMP stimulation (HCC44; cGAMP stimulation),pTBK1 in response to cGAMP stimulation (HCC44; cGAMP stimulation),"survival of treated animals [1, 3]","tumor growth [1, 3]",survival of animals ([1]; E0771.1mb Cgas KO tumors),"tumor growth ([1]; E0771.1mb tumors, both cGAS proficient and deficient)",tumor growth and survival benefit ([1]; wildtype tumors),"Arginase 1 (M2-like marker) in macrophages (macrophages; conditioned media from KL, 4T1, CT26 and B16F10 cells treated with MSA-2, with inhibition of cGAS in cancer cells)",iNOS (M1-like marker) in macrophages (macrophages; conditioned media from MSA-2-treated Cgas KO cells versus wildtype MSA-2-treated cancer cells),"tumor growth, single agent [2]"
Nc1ccc(-c2cc(Cl)c(Cl)c3[nH]c4c(c23)CN(C(=O)CO)CC4)cn1 [G150],restored,enhanced,enhanced,–,–,–,–,–,–,–,–
COc1cc2cc(C(=O)CCC(=O)O)sc2cc1OC [MSA-2],–,–,–,extending the survival,significantly slowed the growth,prolonged survival,grew slightly slower,comparatively minimal effect,reductions of Arginase 1,robust increase in iNOS,did not significantly hinder tumor growth
